According to PubChem BioAssay (NCI):
“And” between values parts separate entries of the source, which are not always exact repeats. Identical values can stand only once.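 Exposure lasted 48 hours, with cells grown in 96-well plates and compounds tested at five concentrations. GI50 marks 50% less growth. TGI: total growth inhibition.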

What was measured:
Assay in all cases: NCI anticancer screen, dose series, 48 h
SF-268 CNS = test system: SF-268 CNS
SF-539 CNS = test system: SF-539 CNS
SK-MEL-2 melanoma = test system: SK-MEL-2 melanoma
SN12C renal = test system: SN12C renal
SW-620 colon = test system: SW-620 colon
U251 CNS = test system: U251 CNS
SR leukemia = test system: SR leukemia
PC-3 prostate = test system: PC-3 prostate
BT-549 breast = test system: BT-549 breast
MCF7 breast = test system: MCF7 breast

| Compound | TGI (SF-268 CNS) | TGI (SF-539 CNS) | TGI (SK-MEL-2 melanoma) | TGI (SN12C renal) | TGI (SW-620 colon) | TGI (U251 CNS) | TGI (SR leukemia) | GI50 (PC-3 prostate) | GI50 (SF-268 CNS) | GI50 (SK-MEL-2 melanoma) | GI50 (SN12C renal) | GI50 (SR leukemia) | GI50 (U251 CNS) | TGI (BT-549 breast) | TGI (MCF7 breast) | TGI (PC-3 prostate) | GI50 (BT-549 breast) | GI50 (MCF7 breast) | GI50 (SF-539 CNS) | GI50 (SW-620 colon) |
| --- | --- | --- | --- | --- | --- | --- | --- | --- | --- | --- | --- | --- | --- | --- | --- | --- | --- | --- | --- | --- |
| CN1CCCc2nc3ccccc3n2C1 | > 100 µM | > 100 µM | > 100 µM | > 100 µM | > 100 µM | > 100 µM |  |  |  |  |  |  |  |  |  |  |  |  |  |  |
| O=C(Nc1nc(=S)[nH][nH]1)C(=O)C(c1cnc2ccc([N+](=O)[O-])cc2n1)[N+](=O)[O-] (stereo unspecified) | > 100 µM | > 100 µM |  | > 100 µM | > 100 µM | > 100 µM | > 100 µM |  |  |  |  |  |  |  |  |  |  |  |  |  |
| COc1ccc([C@@]23Oc4cc(OC)cc(OC)c4[C@]2(O)[C@H](O)[C@H](C(=O)N(C)C)[C@H]3c2ccccc2)cc1 |  | 0.00512 µM and 0.0154 µM | 0.0938 µM and 0.0112 µM and 0.0709 µM | 0.329 µM and 0.0664 µM and 0.186 µM | 1.02 µM and 0.26 µM and 0.244 µM |  |  | 0.0173 µM | 0.0152 µM | 0.0225 µM | 0.0192 µM | 0.016 µM | 0.0157 µM |  |  |  |  |  |  |  |
| N#Cc1ccccc1Sc1ccccc1N | > 100 µM | > 100 µM | > 100 µM | > 100 µM | > 100 µM | > 100 µM | > 100 µM |  |  |  |  |  |  |  |  |  |  |  |  |  |
| Cc1cc(OC2OC(CO)C(O)C(O)C2O)ccc1O (stereo unspecified) | > 100 µM | > 100 µM | > 100 µM | > 100 µM | > 100 µM | > 100 µM |  |  |  |  |  |  |  | > 100 µM | > 100 µM | > 100 µM |  |  |  |  |
| CCc1c(OC(C)=O)c2c(NC3OC(COC(C)=O)C(OC(C)=O)C(OC(C)=O)C3OC(C)=O)nc(SC)nc2oc1=O (stereo unspecified) |  | > 100 µM | > 100 µM | > 100 µM | > 100 µM | > 100 µM |  |  |  |  |  |  |  |  |  |  |  |  |  |  |
| Cc1ccc(S(=O)(=O)Nc2ccccc2C(C)(C)C)cc1 |  | 33.9 µM | 60.2 µM |  | > 100 µM | 43.3 µM |  |  |  |  |  |  |  |  |  |  |  |  |  |  |
| CCC(Oc1ccc(OC)c2c1C(=O)CCC2)C(=O)O (stereo unspecified) | > 100 µM | > 100 µM | > 100 µM | > 100 µM | > 100 µM | > 100 µM | > 100 µM |  |  |  |  |  |  |  |  |  |  |  |  |  |
| O=C([O-])c1ccc([I+]c2ccccc2)cc1 | > 100 µM | > 100 µM | > 100 µM | > 100 µM | > 100 µM | > 100 µM | > 100 µM |  |  |  |  |  |  |  |  |  |  |  |  |  |
| Nc1nc(Cl)c2ncn(Cc3ccc(C45CC6CC(CC(C6)C4)C5)c(OCc4cc(F)c(F)cc4F)c3)c2n1 | 15.2 µM | 14.8 µM | 20.4 µM | 11.3 µM | 20.5 µM | 16.3 µM |  | 1 µM | 3.01 µM | 5.84 µM | 3.05 µM |  | 3.04 µM | 13 µM | 16.3 µM | 3.98 µM | 3.86 µM | 3.12 µM | 4.18 µM | 2.14 µM |
| COc1cccc(-c2cc(=O)c3cc(N4CCN(C)CC4)ccc3[nH]2)c1 | > 100 µM | 2.36 µM and 7.13 µM | > 100 µM | > 100 µM | > 100 µM |  | 2.49 µM | 1.55 µM | 4.28 µM | 3.16 µM | 4.68 µM |  |  |  | > 100 µM | > 100 µM |  | 3.72 µM | 1.5 µM | 0.755 µM |
| CCCCCCCCCCCCCCCC(=O)OCC1OC(n2cc(F)c(=O)[nH]c2=O)C(NC(=O)OCc2ccccc2)C(O)C1O (stereo unspecified) | 54 µM | 30.9 µM | 32 µM | 38 µM | 73 µM | 31.4 µM |  |  |  |  |  |  |  |  |  |  |  |  |  |  |
| CS(=O)(=O)OCCN1CCN(C(=O)c2ccc(Cl)c3c(Nc4ccc(S(=O)(=O)N=C(N)N)cc4)c4ccccc4nc23)CC1 | > 100 µM | > 100 µM | > 100 µM | > 100 µM |  | > 100 µM | > 100 µM |  |  |  |  |  |  |  |  |  |  |  |  |  |
| O=C1C=CC2(CCC23C=CC(=O)O3)O1 (stereo unspecified) | > 100 µM | > 100 µM | > 100 µM | > 100 µM | > 100 µM | > 100 µM |  |  |  |  |  |  |  |  |  |  |  |  |  |  |
| C#Cc1cccc(NC(=O)/C=C\C(=O)O)c1 | > 100 µM |  | > 100 µM | > 100 µM | > 100 µM | > 100 µM |  |  |  |  |  |  |  |  |  |  |  |  |  |  |
| CC(C)c1ccc(Cc2ccc(C(C)C)c(NC(=O)C(=O)Cc3cnc4ccccc4n3)c2C(C)C)c(C(C)C)c1NC(=O)C(=O)Cc1cnc2ccccc2n1 |  | > 100 µM | > 100 µM |  | > 100 µM | > 100 µM |  |  |  |  |  |  |  |  |  |  |  |  |  |  |
| O=C(O)c1ccccc1NCn1nc(-c2ccccc2O)oc1=S | > 100 µM |  | > 100 µM | > 100 µM | > 100 µM | > 100 µM |  | 43.6 µM | 80.9 µM | > 100 µM | 56.5 µM |  | 48.3 µM | > 100 µM | > 100 µM | > 100 µM | 73.8 µM | 46.7 µM |  | 33.8 µM |
| C=C1C(=O)O[C@@H]2C[C@@]3(C)[C@H](O)CCC(=C)[C@@H]3C[C@H]12 | 34.9 µM | 23.6 µM | 40 µM | 23.2 µM | 11.7 µM | 26.2 µM | 14 µM |  |  |  |  |  |  |  |  |  |  |  |  |  |
| CCOC(=O)C1=C(C)N(NC(N)=O)C2(N)N(NC(N)=O)C(C)=C(C(=O)OCC)C12C#N (stereo unspecified) | > 100 µM | > 100 µM | > 100 µM | > 100 µM | > 100 µM | > 100 µM | > 100 µM |  |  |  |  |  |  |  |  |  |  |  |  |  |
| CCOC(=O)C[C@@]12CCCN[C@]1(C)CCc1ccccc12 | > 100 µM | > 100 µM | > 100 µM | > 100 µM | > 100 µM | > 100 µM | > 100 µM |  |  |  |  |  |  |  |  |  |  |  |  |  |
| CCCC(O)[C@@]1(CC)CC(C)C(O)(C2(C)C[C@H](C)[C@@H](C(CC)C(=O)C(C)[C@@H](O)[C@H](C)C3OC(O)(C(CC)C(=O)O)[C@@H](C)C(O)C3CC)O2)O1 (stereo partly specified) | 2.21 µM | 2.76 µM | 1.73 µM | 2.39 µM | 2.9 µM | 1.82 µM |  |  |  |  |  |  |  | 1.41 µM | 2.17 µM | 1.76 µM |  |  |  |  |
| CC(C)(C)C1=NO[C@H]2[C@@H](NC(=O)c3ccccc3)CC[C@@H]12 | > 100 µM | > 100 µM |  | > 100 µM | > 100 µM | > 100 µM | > 100 µM |  |  |  |  |  |  |  |  |  |  |  |  |  |
| N#CC(C(=O)Nc1ccccc1)C1=C(Cl)C(=O)c2ccccc2C1=O (stereo unspecified) | 31 µM | 28.8 µM | 32.7 µM | 29.1 µM | 50 µM | 61.5 µM |  |  |  |  |  |  |  |  |  |  |  |  |  |  |
| COc1cc2c(c3c1c(=O)c1ccccc1n3C)C=C([N+](=O)[O-])C(C)(C)O2 | > 100 µM | > 100 µM |  | > 100 µM |  | > 100 µM | > 100 µM |  |  |  |  |  |  |  | > 100 µM | > 100 µM |  |  |  |  |
